According to ChEMBL document CHEMBL1201862, “PubChem BioAssay data set” (2004):
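Protocol summary: plate cells (96-well), add compound at 5 concentrations, incubate 48 h, interpolate endpoints linearly. The concentration for 50% growth inhibition is given as GI50.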 Activity calls are given as the source filed them. Rule as the data show it: active = GI50 up to about 1.1 µM and inactive = higher.

What was measured:
Assay in all cases: NCI tumour cell line growth inhibition, 48 h
[1] = test system: NCI-H522
[2] = test system: OVCAR-3
[3] = test system: SK-MEL-5
[4] = test system: U-251
[5] = test system: HOP-62
[6] = test system: NCI-H23
[7] = test system: HCC 2998
[8] = test system: COLO 205
[9] = test system: MDA-N
[10] = test system: HCT-116
[11] = test system: MDA-MB-435
[12] = test system: RXF 393
[13] = test system: SF-295
[14] = test system: A549
[15] = test system: A498
[16] = test system: SK-MEL-2
[17] = test system: BT-549
[18] = test system: SK-MEL-28
[19] = test system: RPMI-8226

Measured: GI50

Clc1c(Cl)c(Cl)c2c(nnn2C2CCCO2)c1Cl (stereo unspecified)
inactive: [1] 23.8 µM | [2] 34.6 µM | [3] 40.1 µM | [4] 33.8 µM | [5] 40.5 µM | [6] 19.6 µM | [7] 29.8 µM | [8] 24.2 µM | [9] 27.7 µM | [10] 39.1 µM | [11] 34.1 µM | [12] 44.4 µM | [13] 36.9 µM | [14] 24.7 µM | [15] 27.5 µM | [16] 26.5 µM

S=C(Nc1ccc2c(c1)oc1ccccc12)c1cccnc1
inactive: [1] 22 µM | [17] 37.1 µM | [2] 22 µM | [3] 70.8 µM | [4] 21.6 µM | [18] > 100 µM | [5] 17.1 µM | [6] 24.5 µM | [7] > 100 µM | [8] > 100 µM | [19] > 100 µM | [9] > 100 µM | [10] 85.7 µM | [11] > 100 µM | [13] 29.9 µM | [14] 37.6 µM | [16] 30.5 µM

CCOc1ccc(Nc2nc3c(s2)C(=O)c2ccccc2C3=O)cc1
inactive: [1] 7.5 µM | [2] 3.04 µM | [3] 2.27 µM | [4] 7.64 µM | [18] 18.9 µM | [5] 17.7 µM | [6] 8.13 µM | [7] 17.1 µM | [8] 19.8 µM | [19] 3.85 µM | [9] 1.96 µM | [10] 13.2 µM | [11] 1.79 µM | [12] 12.8 µM | [13] 10.7 µM | [14] 19.5 µM | [15] 15.8 µM | [16] 15.1 µM

COC12c3ccccc3-c3ccccc3C1[C@H]1C(=O)OC(=O)[C@H]12 (stereo partly specified)
inactive: [1] > 10 µM | [2] > 10 µM | [3] > 10 µM | [4] > 10 µM | [18] > 10 µM | [5] > 10 µM | [6] > 10 µM | [7] > 10 µM | [8] > 10 µM | [19] > 10 µM | [9] > 10 µM | [11] > 10 µM | [12] > 10 µM | [13] > 10 µM | [15] > 10 µM | [16] > 10 µM

CN(C)c1ccc(/C=C2\C[C@H]3[C@@H]4CC=C5C[C@@H](O)CC[C@]5(C)[C@H]4CC[C@]3(C)C2=O)cc1
inactive: [17] 53.5 µM | [2] 24.8 µM | [3] 50.7 µM | [4] 12.9 µM | [18] 16.2 µM | [5] 13.2 µM | [6] 25.6 µM | [8] 23.7 µM | [19] 66.8 µM | [9] 32.4 µM | [10] 29.2 µM | [12] 19.7 µM | [13] 25.6 µM | [14] 19.9 µM | [15] 20.9 µM | [16] 19.7 µM

CC(=O)Oc1cc(-c2oc3cc(OC(C)=O)c(C4OC(CO)C(O)C(O)C4O)c(OC(C)=O)c3c(=O)c2O)c(OC(C)=O)cc1O (stereo unspecified)
inactive: [1] 72.6 µM | [17] > 100 µM | [2] > 100 µM | [3] > 100 µM | [4] > 100 µM | [5] > 100 µM | [6] > 100 µM | [7] > 100 µM | [8] > 100 µM | [19] 56.4 µM | [9] > 100 µM | [10] > 100 µM | [11] > 100 µM | [12] > 100 µM | [13] > 100 µM | [14] > 100 µM | [16] > 100 µM

Cc1cn(CCOCCOC(=O)NC(CCCNC(N)=O)C(=O)O)c(=O)[nH]c1=O (stereo unspecified)
inactive: [17] > 100 µM | [2] > 100 µM | [4] > 100 µM | [18] > 100 µM | [5] > 100 µM | [6] > 100 µM | [7] > 100 µM | [8] > 100 µM | [19] > 100 µM | [9] > 100 µM | [10] > 100 µM | [11] > 100 µM | [12] > 100 µM | [13] > 100 µM | [14] > 100 µM | [16] > 100 µM

CC1CCC2CC1NC(=O)CCOCCC(=O)NC2(C)C (stereo unspecified)
inactive: [1] > 100 µM | [17] > 100 µM | [2] > 100 µM | [3] > 100 µM | [4] > 100 µM | [18] > 100 µM | [5] > 100 µM | [6] > 100 µM | [7] > 100 µM | [8] > 100 µM | [9] > 100 µM | [10] > 100 µM | [11] > 100 µM | [13] > 100 µM | [14] > 100 µM
